Assay results published in US20070092444A1, “Inhibition of inward sodium currents in cancer” (priority 2003, published 2007).

Columns and labels:
ASIC1 [1] = molecular target: T1, ASIC1 (Homo sapiens, UniProt P78348); assay: Acid-activated currents in voltage-clamped Xenopus oocytes expressing ASIC1; format: cell-based; details: 400 μM amiloride; pHo 4.0; −60 mV
T1 sequence (P78348 1-528): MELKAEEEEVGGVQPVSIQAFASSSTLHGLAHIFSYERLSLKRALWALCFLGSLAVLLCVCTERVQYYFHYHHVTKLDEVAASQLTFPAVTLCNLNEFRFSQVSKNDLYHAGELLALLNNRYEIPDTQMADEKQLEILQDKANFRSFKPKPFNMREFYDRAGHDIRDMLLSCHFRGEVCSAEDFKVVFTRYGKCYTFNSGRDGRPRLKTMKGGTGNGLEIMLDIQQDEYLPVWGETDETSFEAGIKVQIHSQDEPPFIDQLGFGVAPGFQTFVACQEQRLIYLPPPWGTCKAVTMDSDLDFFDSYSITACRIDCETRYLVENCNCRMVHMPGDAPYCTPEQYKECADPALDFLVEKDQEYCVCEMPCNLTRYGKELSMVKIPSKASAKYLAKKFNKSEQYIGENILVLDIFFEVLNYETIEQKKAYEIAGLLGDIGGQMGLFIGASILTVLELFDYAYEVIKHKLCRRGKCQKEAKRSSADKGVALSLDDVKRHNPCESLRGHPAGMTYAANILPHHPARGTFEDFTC
Source text: FIGS. 8A-C show acid-activated ASIC currents in Xenopus oocytes. ASIC 2 (FIG. 8A), ASIC1 (FIG. 8B) and the combination of ASIC2 and ASIC1 (FIG. 8C) were examined. […] Each oocyte served as its own control.
(§1) Membrane potential was held at −60 mV, and the pHo was step decreased to 4.0 for 10 s, and then returned to 7.4 for 30 s before repeating the sequence.
Xenopus oocytes were used to express ASIC1 and ASIC2 mRNA individually and in combination. Oocyte preparation, cRNA injection, and two-electrode voltage clamp recordings were performed as described (33,67-69).
as §1

ASIC1 [2] = molecular target: T1, ASIC1; assay: Wild-type ASIC1 in planar lipid bilayers, single channel recording; format: biochemical; details: amiloride; bilayers
Experimental: An expanded time scale is shown below each trace.
Wild-type ASIC1 incorporated into planar lipid bilayers at neutral pH or at acidic extracellular pH was also examined.
as §1
Control single channel were record for ASIC1 containing channels in bilayers bathed with symmetrical 100 mM NaCl, 10 mM MOPS, pH 6.2. Holding potential was +100 mV referred to the virtually grounded trans chamber. For illustration purposes, data shown were digitally filtered at 100 Hz using pCLAMP software (Axon Instruments) subsequent to acquisition of the analog signal filtered at 300 Hz with an 8-pole Bessel filter before acquisition at 1 ms per point. An expanded time scale is shown below each trace (FIG. 21).
Representative dwell-time histograms were constructed following the events analyses performed using pCLAMP software (Axon Instruments) on single channel recordings of 10 min in duration filtered at 300 Hz with an 8-pole Bessel filter before acquisition at 1 ms per point using pCLAMP software and hardware. The event detection thresholds were 50% in amplitude of transition between closed and open states, and 3 ms in duration. Closed and open time constants shown were determined by fitting the closed and open time histograms to the probability density function (Sigworth and Sine, 1987), and using the Simplex least square routine of pSTAT. Number of bins per decade in all histograms was 16.

Na^+/H^+ exchange = details: glial / glioma cells; references 72, 73; cited from earlier work
primary GBM cultures = assay: Transwell Migration Assay, primary GBM cultures; format: cell-based, human; details: 3 h, vitronectin
Experimental: Approximately 10,000 cells were added to the upper side of a filter insert perforated with 5-8 μm holes, and induced to migrate through these pores toward the extracellular matrix protein vitronectin (coated on the underside of the filter). PcTX1 or control scrambled PcTX1 peptide was added to each compartment at the same time as the cells. BSA-coated filter inserts were used as negative controls. After 3 h, cells were fixed with 4% paraformaldehyde, and subsequently stained with crystal violet. Cells were counted on an inverted microscope, averaging five fields per Transwell chamber. Four-to-ten chambers were used under each condition.

U87-MG cells = assay: Regulatory volume increase after osmotic shrinkage, Coulter counter; format: cell-based, human; details: 80 nM PcTX1; 450 mOsM/kg
Experimental: U87-MG cells were mechanically dispersed, washed, and resuspended in PBS. At t=2-3 min, the osmolality of the bathing medium was increased to 450 mOsM/kg by the addition of NaCl from a 3M stock solution.

N=C(N)NC(=O)c1nc(Cl)c(N)nc1N [amiloride]
inhibition of acid-activated currents (ASIC1 [1]): inhibited
kind of channel block (ASIC1 [2]): flickery-block
inhibition of Na^+/H^+ exchange (Na^+/H^+ exchange): can inhibit

Psalmotoxin 1 [PcTX1]
diminished ability to migrate through the filter (primary GBM cultures): > 90%
volume recovery after shrinkage (U87-MG cells): effectively prevented
